# Assay results taken from US6777418B2, “Retinoid compounds (I)” (Syntex (U.S.A.) LLC, priority 2000, dated 2004).
row,melting point [°C],SMILES
1,247.6 to 248.4,"CC1(C)CC(O)C(C)(C)c2cc(/C=C/c3ccc(C(=O)O)cc3)c(Cn3cccn3)cc21 (stereo not drawn) [Compound 137, (E)-4-[2-(3-(pyrazole-1-ylmethyl)-7-hydroxy-5,5,8,8-tetramethyl-5,6,7,8-tetrahydronaphthalene-2-yl)vinyl]benzoic acid]"
2,264.8 to 265.9,"CC1(C)CC(=O)C(C)(C)c2cc(/C=C/c3ccc(C(=O)O)cc3)c(Cn3cccn3)cc21 [Compound 144, (E)-4-[2-(3-(pyrazole-1-ylmethyl)-7-oxo-5,5,8,8-tetramethyl-5,6,7,8-tetrahydronaphthalene-2-yl)vinyl]benzoic acid]"
3,283 to 283.5,"CC1(C)CCC(C)(C)c2cc(Sc3ncccn3)c(/C=C/c3ccc(C(=O)O)cc3)cc21 [Compound 155, 4-{(E)-2-[5,5,8,8-Tetramethyl-3-(mercaptopyrmidin-2-yl)-5,6,7,8-tetrahydro-naphthalen-2-yl)vinyl]benzoic acid]"
4,248 to 249,"CC1(C)CCC(C)(C)c2cc(Cn3cccn3)c(/C=C/c3ccc(C(N)=O)cc3)cc21 [Compound 165, 4-[(E)-2-(5,5,8,8-tetramethyl-3-pyrzol-1-ylmethyl-5,6,7,8-tetrahydro-naphthalen-2-yl)vinyl]benzamide]"
5,171.6 to 172.5,"CC1(C)CCC(C)(C)c2cc(Cn3cccn3)c(/C=C/c3ccc(C(=O)N4CCCCC4)cc3)cc21 [Compound 166, 4-[(E)-2-(5,5,8,8-tetramethyl-3-pyrzol-1-ylmethyl-5,6,7,8-tetrahydro-naphthalen-2-yl)vinyl]benzoic acid piperidine amide]"

# More lines, now with the values behind:
row,SMILES,melting point [°C]
1,"Cc1ccc(Cc2cc3c(cc2/C=C/c2ccc(C(=O)O)cc2)C(C)(C)CCC3(C)C)cc1 [Compound 42, 4-{(E)-2-[5,5,8,8-tetramethyl-3-(4-methylbenzyl)-5,6,7,8-tetrahydro-naphthalen-2-yl]vinyl}benzoic acid]",216.3 to 217.3
2,"CC1(C)CCC(C)(C)c2cc(Cc3ccc(F)cc3F)c(/C=C/c3ccc(C(=O)O)cc3)cc21 [Compound 43, 4-{(E)-2-[5,5,8,8-tetramethyl-3-(2,4-difluorobenzyl)-5,6,7,8-tetrahydro-naphthalen-2-yl]vinyl}benzoic acid]",204.3 to 205.7
3,"CC1(C)CCC(C)(C)c2cc(Cc3cccs3)c(/C=C/c3ccc(C(=O)O)cc3)cc21 [Compound 44, 4-[(E)-2-(5,5,8,8-tetramethyl-3-thiophen-2ylmethyl-5,6,7,8-tetrahydro-naphthalen-2-yl)vinyl]benzoic acid]",229.1 to 229.6
4,"CC1(C)CCC(C)(C)c2cc(Cn3cccn3)c(/C=C/c3ccc(C(=O)O)s3)cc21 [Compound 45, 5-[(E)-2-(5,5,8,8-tetramethyl-3-pyrazol-1-ylmethyl-5,6,7,8-tetrahydro-naphthalen-2-yl)vinyl]-thiophene-2-carboxylic acid]",168 to 174
5,"CC1(C)CCC(C)(C)c2cc(Cn3cccn3)c(/C=C/c3ccc(C(=O)O)c(F)c3)cc21 [Compound 47, 2-Fluoro-4-[(E)-2-[5,5,8,8-tetramethyl-3-pyrazol-1-ylmethyl-5,6,7,8-tetrahydronaphthalen-2-yl)vinyl]benzoic acid]",177 to 179
6,"CC1(C)CC(O)C(C)(C)c2cc(Cn3cccn3)c(/C=C/c3ccc(C(=O)O)cc3)cc21 (stereo not drawn) [Compound 55, 4-[(E)-2-(5,5,8,8-tetramethyl-3pyrazol-1-ylmethyl-6-hydroxy-5,6,7,8-tetrahydro-naphthalen-2-yl)vinyl]benzoic acid]",241.6 to 242
7,"CC1(C)CC(=O)C(C)(C)c2cc(Cn3cccn3)c(/C=C/c3ccc(C(=O)O)cc3)cc21 [Compound 133, 4-[(E)-2-(5,5,8,8-tetramethyl-3-pyrazol-1-ylmethyl-6-oxo-5,6,7,8-tetrahydro-naphthalen-2-yl)vinyl]-benzoic acid]",233 to 233.5
